{
  "source": "patent US12576157B2",
  "about": "“Peptide saporin conjugate for the treatment of cancer” (SRI International, priority 2017, dated 2026)",
  "key": {"cancer cells [1]": {"system": "cancer cells", "assay": "Cancer cell killing assay", "assay_type": "cell-based", "settings": "unconjugated", "method": "A cancer cell killing assay was performed (see, FIG. 22). Cancer cells were put into a dish. After 24 hours, cells were given different doses of peptide-saporin for 1 hour. Peptide-saporin was washed off and cells were left for 72 more hours. Assay to measure live cells performed."}, "NSCLC tumor": {"system": "NSCLC tumor", "assay": "H1299.3 15-mer in vivo tumor targeting", "method": "(§1) A modified MGS peptide (SEQ ID NO: 31) that fuses amino acids 1-5 and 11-20 of the original MGS peptide: LQWRRNFGVWARYRL (SEQ ID NO: 31) was assessed."}, "[2]": {"assay": "Solubility of H1299.3 15-mer", "assay_type": "physicochemical", "settings": "effect of acetylation"}, "LC line H1299": {"system": "LC line H1299", "assay": "Flow cytometry binding of peptide-dye conjugate, H1299", "assay_type": "cell-based, human", "method": "(§2) Flow Cytometry. Biotinylated peptide was conjugated to streptavidin-R-phycoerythrin (1:1) for 30 min at RT. The remaining binding sites on streptavidin were quenched with RPMI 1640 and solution diluted to 25 nM. Tumor cells were grown to 90% confluency in a 12 well plate, then incubated with 500 μl peptide-dye conjugate for 1 hour at 37 C. After 1 hour, peptide was removed and the cells were washed 3× with PBS for 5 min, 2× with acid rinse, and 1×PBS rinse. Added 300 μl trypsin until cells lifted then added 700 μl RPMI+5% FBS to inactivate the trypsin. Cells were transferred to a flow tube, and put on ice in the dark. Flow cytometry was run on BD FACSCelesta and data were analyzed on Flowing software. A region containing <5% of the cells in the negative control is established and the McGuire score is calculated for each sample by multiplying the % of positive cells by the fluorescence intensity.\n(§3) For the flow cytometry experiments, cells are treated with a peptide (e.g., a MGS peptide) that has a dye on it for one hour. If the peptide enters the cell(s), the dye will also enter the cell(s) (see, FIG. 11). Next, the cells are washed and placed in a tube to run flow cytometry. The flow cytometer can measure the brightness of 10,000 or more individual cells."}, "normal HBEC's": {"system": "normal HBEC's", "assay": "Flow cytometry binding of peptide-dye conjugate, normal HBEC", "assay_type": "cell-based", "method": "as §2, §3"}, "[3]": {"system": "NSCLC and other tumor cells", "assay": "Peptide binding/internalization in tumor cell lines", "assay_type": "cell-based, human", "method": "as §2, §3\nPhage blocking was used as a control. HCC15.2 was internalized by a specific panel of cell lines and not others."}, "H1299 cells": {"system": "H1299 cells", "assay": "Confocal microscopy, organelle co-localization", "assay_type": "cell-based, human", "settings": "over time", "method": "Confocal Microscopy. Plasmids with organelle specific markers labeled with GFP were purchased from Addgene and electroporated into H1299 cells. After G418 selection, GFP-labeled tumor cells were plated on 8 well chamber slides on the day previous to the study. Biotinylated peptide was conjugated to streptavidin-AlexaFluor 555 (1:1) for 30 min at RT and quenched with RPMI, then added to the wells at 50 nM. After 1 hour incubation cells were washed for 5 min 3× with PBS, 2× acid rinses, and 1×PBS rinse. Cells were fixed in 2% formaldehyde for 10 min, washed with PBS, stained with DAPI in mounting media and coverslip was added. Microscopy was acquired on a Zeiss LSM 700 with a Pln Apo 63×/1.4 oil DIC III objective. Compressed images were obtained using ImageJ software maximal intensity projections.\nFor the microscopy experiments, cells are treated with a peptide (e.g., a MGS peptide) that has a dye on it for one hour. If the peptide enters the cell(s), the dye will also enter the cell(s) (see, FIG. 1). Next, the cells are washed and fixed to glass plate. Other parts of the cell (e.g., cell membrane, organelles or nucleus) are stained. Fluorescent microscopy is performed to assess the dyes in the cells. Confocal microscopy is used to take a series of sliced images that can be used to build a 3D picture (like an MRI)."}, "cancer cells [4]": {"system": "cancer cells", "assay": "H1299.3 15-mer cell binding and autophagosome co-localization", "assay_type": "cell-based", "method": "as §1"}},
  "note": "Residues, ends and D or L forms follow the SMILES beside them.",
  "data": [
    {"compound": "saporin: ribosome inactivating protein (RIP, 34 KD) with no cell entry domain; plant toxin", "values": [
      {"measurement": "cell entry", "setting": "cancer cells [1]", "value": "did not enter the cell by itself"}
    ]},
    {"compound": "CC(=O)N[C@@H](CC(C)C)C(=O)N[C@@H](CCC(N)=O)C(=O)N[C@@H](Cc1c[nH]c2ccccc12)C(=O)N[C@@H](CCCNC(=N)N)C(=O)N[C@@H](CCCNC(=N)N)C(=O)N[C@@H](CC(N)=O)C(=O)N[C@@H](Cc1ccccc1)C(=O)NCC(=O)N[C@H](C(=O)N[C@@H](Cc1c[nH]c2ccccc12)C(=O)N[C@@H](C)C(=O)N[C@@H](CCCNC(=N)N)C(=O)N[C@@H](Cc1ccc(O)cc1)C(=O)N[C@@H](CCCNC(=N)N)C(=O)N[C@@H](CC(C)C)C(=O)O)C(C)C", "note": "[1299.3 Ac-15mer] (Ac-LQWRRNFGVWARYRL-OH; N-terminus and C-terminus assumed)", "values": [
      {"measurement": "degradation in vivo", "setting": "NSCLC tumor; effect of acetylation", "value": "protects degradation in vivo"},
      {"measurement": "solubility", "setting": "[2]", "value": "improves solubility"}
    ]},
    {"compound": "FHAVPQSFYTAP [HCC15.2]", "values": [
      {"measurement": "binding by flow cytometry", "setting": "LC line H1299", "value": "binds"},
      {"measurement": "binding by flow cytometry", "setting": "normal HBEC's", "value": "does not bind"},
      {"measurement": "binding to cell line panel", "setting": "[3]", "value": "binds to a specific subset of NSCLC and other tumor cells"},
      {"measurement": "internalization", "setting": "[3]; at 4° C.", "value": "does not internalize"},
      {"measurement": "effect of tetramerization on receptor mediated internalization", "setting": "[3]; tetramer compared to monomer", "value": "does not significantly improve"},
      {"measurement": "internalization", "setting": "[3]; treating with trypsin 2 min before adding peptide", "value": "no internalization"},
      {"measurement": "lysosome localization", "setting": "H1299 cells", "value": "accumulates in the lysosome over time"}
    ]},
    {"compound": "LQWRRNFGVWARYRL [SEQ ID NO: 31]", "values": [
      {"measurement": "cancer specificity", "setting": "cancer cells [4]; cancer versus normal cell binding", "value": "maintains its cancer specificity"},
      {"measurement": "trafficking to the autophagosome", "setting": "cancer cells [4]; versus original peptide", "value": "increases its ability to traffic to the autophagosome"},
      {"measurement": "tumor targeting in vivo", "setting": "NSCLC tumor; NSCLC tumor in an animal", "value": "hones to a NSCLC tumor"},
      {"measurement": "reduction in heart, lung and kidney tumors", "setting": "NSCLC tumor; in vivo", "value": "> 2", "unit": "fold"}
    ]},
    {"compound": "FHAVPQSFYT [SEQ ID NO: 3]", "values": [
      {"measurement": "effect of acetylation on binding of the truncated peptide", "setting": "[3]; N-terminal acetylation", "value": "improves binding"}
    ]}
  ]
}
